Entries after “also recorded” stand apart in the source; their conditions may differ.
Assays:
K562 cells = conditions: 50 μM hemin for 2-3 days; cited from earlier work
Ngb mRNA = Ngb mRNA expression in HN33 cells (RT-PCR, quantitative RT-PCR, Northern blot); assay type: cell-based, mouse
Protocol: (§1) HN33 cells were cultured as described (Lee et al. (1990) J Neurosci. 10: 1779-1787; Shi et al. (1998) J Neurochem., 70:1035-1044; Jin et al. (2000) Proc Nati Acad Sci USA., 97:10242-10247). Cells were plated at 4×10^5 cells/well onto uncoated, 6-well plastic culture dishes in Dulbecco's modified Eagle's medium containing 10% (v/v) fetal bovine serum, 100 units/ml of penicillin and 100 μg/ml of streptomycin, and maintained at 37° C. in humidified 95% air/5% CO2. Cells were treated with hemin (typically 50 μM) or 8-Br-cGMP (10 μM) for up to 3 days, without daily replacement. To suppress sGC or PKG activity, cells were pretreated for 1 hour with inhibitors before adding other reagents.
RT-PCR and Northern blot analyses were carried out as described previously (Zhu and Zhang (1999) Biochem Biophys Res Commun., 258:87-93). Briefly, total RNA from treated and untreated cells was extracted using a RNeasy Mini Kit (QIAGEN Operon, Valencia, Calif.), and DNA-free total RNA (2 μg per sample) was reverse-transcribed into first-strand cDNA using the Reverse Transcription System and Oligo-dT12-18 (GIBCO-BRL, Rockville, Md.) (Id.). Sequences of the primers used for PCR amplification were: Ngb forward, 5′ CTCTGGAACATGGCACTGTC 3′ (nt 135-154, SEQ ID NO:7); Ngb reverse, 5′ GCACTGGCTCGTCTCTTACT 3′ (nt 547-528, SEQ ID NO:8); β-actin forward, 5′ CACAGGCATTGTGATGGACTC 3′ (nt 524-544, SEQ ID NO:9); β-actin reverse, 5′ GCTCAGGAGGAGCAATGATCT 3′ (nt 582-563, (SEQ ID NO:10). Primers were designed based on the published sequences of these genes and were synth esized by QIAGEN Operon. All PCR primer pairs gave rise to only one discrete band of the expected size. PCR reactions were carried out in a total volume of 25 μl containing 2 μl cDNA, 1×PCR buffer (Boehringer Mannheim, Mannheim, FRG), 200 μM dNTPs, 0.6 U Taq DNA polymerase (Boehringer Mannheim), and 0.2 μM primers. The optimal conditions for amplification (temperature and cycle number) were determined experimentally according to previously published procedures (Id.). Different ratios of Ngb to b-actin primer pairs were tested to ensure that Ngb and b-actin were amplified with similar efficiency, and a kinetic study was undertaken to establish the number of cycles sufficient to detect both Ngb and b-actin without reaching saturation for either. The parameters chosen for PCR amplification were 95° C. for 1 minute, 57° C. for 45 seconds, 72° C. for 1 minute for 25-30 cycles, and a final incubation at 72° C. for 10 minutes. PCR products were separated on 1.2% agarose gels, visualized by ethidium bromide staining, and quantified using a ChemiImage System (Alpha Innotech Corporation, San Leandro, Calif.).
For Northern blotting, 15 μg of total RNA from each sample was fractionated on 1% formaldehyde/agarose gels and transferred to Hybond-N nylon membranes (Amersham Pharmacia, Piscataway, N.J.). Filters were hybridized with probes for Ngb MRNA, and β-actin mRNA at 68° C. in hybridization buffer (Clontech, Palo Alto, Calif.). ^32P-radiolabeled DNA probes were synthesized using cDNA obtained from RT-PCR amplification.
Quantitative RT-PCR analysis was carried out as described previously.8 PCR reactions were carried out in a total volume of 25 μl containing 1 μI cDNA, 1×PCR buffer (Boehringer Mannheim), 200 μM dNTPs, 0.6 U Taq DNA polymerase (Boehringer Mannheim), two pairs of primers (one pair for the Ngb gene, another for the b-actin gene used as an internal control). The optimal conditions for amplification (the proportion between the two pairs of primers, temperatures, and cycle numbers) were determined experimentally according to previously established procedures.8 PCR products were separated on 1.2% agarose gels, visualized by ethidium bromide staining, and quantified using a ChemiImage System (Alpha Innotech Corporation).

cGMP = assay: Intracellular cGMP content in HN33 cells (enzyme immunoassay); assay type: cell-based, mouse
Protocol: HN33 cells (4×10^4 cells in 100 μl) were plated on 96-well microtiter plates and treated with 50 μM hemin for 2, 8, 16, or 24 hours. Intracellular cGMP concentrations were measured in quadruplicate using a cGMP enzyme-immunoassay system (Amersham Pharmacia).

HN33 cells = assay: HN33 cell viability (MTT); assay type: cell-based, mouse
Protocol: Cell viability was assessed by measuring formazan produced by the reduction of 3-(4,5-dimethylthiazol-2-yl)-2,5-diphenyl tetrazolium bromide (MTT) in viable cells.3 Cells were incubated with 5 mg/ml of MTT (Sigma) at 37° C. for 2 hours. The medium was removed and cells were solubilized with dimethylsufoxide and transferred to 96-well plates. The formazan reduction product was detected by measuring absorbance at 570 nm in a Cytofluor Series 4000 multi-well plate-reader (PerSeptive Biosystems, Framingham, Mass.). Results were expressed as a percentage of control absorbance, measured in normoxic cultures, after subtracting background absorbance (measured in freeze-thawed cultures) from all values.

[1] = system: vascular endothelial growth factor; conditions: aortic smooth muscle cells; cited from earlier work
Ngb protein = Ngb protein expression in HN33 cells (Western blot); assay type: cell-based, mouse
Protocol: as §1
Cells were washed twice in PBS, and whole-cell extracts were prepared by adding 10 volumes of 1× sample buffer containing 2% SDS, 100 mM dithiothreitol, 60 mM Tris (pH 6.8) and 10% glycerol, and boiled for 5 minutes. Protein concentrations were determined using Bradford Protein Assays (Bio-Rad, Hercules, Calif.); 30 μg of protein was analyzed by 12% or 15% SDS-PAGE and transferred to Immuno-Blot PVDF membranes (Bio-Rad). Membranes were probed with affinity-purified anti-Ngb antibody, which was produced by immunizing with a synthetic peptide corresponding to amino-acids 35-50 (NH2-CLSSPEFLDHIRKVML-COOH, (SEQ ID NO:11) of mouse Ngb (Sun et aL (2001 Proc Natl Acad Sci USA. 98:15306-15311),and the signal was detected with Boehringer Mannheim chemiluminescence blotting kits. Differences in protein expression on Western blots were quantified using a GS-710 calibrated imaging densitometer and Quantity One software (Bio-Rad).

[2] = system: transient forebrain ischemia; conditions: rats, direct administration after transient forebrain ischemia; cited from earlier work

hemin
cells producing a high level of hemoglobin (K562 cells): more than 50%
maximal increase in neuroglobin mRNA level (Ngb mRNA; 50 μM hemin, 8-24 hours): about 4 fold
Ngb mRNA levels (Northern blot) (Ngb mRNA; HN33 cells, 50 μM hemin for 16 hours): about 4 fold
Maximal induction of Ngb mRNA expression (RT-PCR, normalized for β-actin) (Ngb mRNA; HN33 cells, hemin 24 h, maximal at 25-50 μM): 4 fold
cGMP levels by 24 hours (cGMP; 50 μM hemin): returned to near basal levels
increase in cGMP levels (cGMP; 50 μM hemin for 2 to 12 hours): 8- to 15 fold
increase in cGMP levels (summary) (cGMP; hemin): > 10 fold
difference in viability relative to control (HN33 cells; 100 μM hemin, 24 hours, HN33 cells): significant (P<0.05) difference in viability
reduction of cell viability (HN33 cells; 100 μM hemin, HN33 cells, MTT): ~15%
effect on HN33 cell viability (HN33 cells; hemin 0-50 μM for 24 h, or 50 μM for up to 3 days, MTT): no effect on cell viability; also recorded: does not alter HN33 cell viability
effect on hypoxic induction of vascular endothelial growth factor [1]: suppress
maximal increase in neuroglobin protein level (Ngb protein; 50 μM hemin, 8-24 hours): about 4 fold
persistence of Ngb protein induction (Ngb protein; HN33 cells, 50 μM hemin): at least 3 days
time at which induction of Ngb protein was evident (Ngb protein; HN33 cells, 50 μM hemin): 2 h
induction of Ngb protein (Ngb protein; HN33 cells, 50 μM hemin for up to 3 days): about 4 times basal levels of expression
neuroprotection: viable neurons in cerebral cortex and striatum [2]: significantly increases the number of viable neurons

— US20050170345A1, “Neuroglobin is up-regulated by and protects neurons from hypoxic-ischemic injury” (priority 2001, published 2005)
